According to patent US5880076A, “Compositions comprising glycacarbamate and glycaurea compounds” (Lever Brothers Company, Division of Conopco, Inc., priority 1997, dated 1999):

Assays:
[1] = Surface Tension Reduction; assay type: physicochemical; settings: 40° C.
Excerpt: An important characteristic feature that surfactants have is the tendency for them to absorb at the water/air interface in an oriented manner, thereby altering the interfacial free energy of that surface. The surface free energy per unit area or surface tension (γ), is a measure of this work and may be considered as the minimum amount of work required to bring sufficient surfactant molecules to the surface.

[2] = Clarity Enhancement of prototype detergent compositions; assay type: physicochemical; settings: detergent formulation
Method: The formulations were placed in a clear jar and stored for 1 month. The prototype detergent compositions are as follows:
(§1) Detergent Compositions Comprising Sodium
(§2) Lauryl Sulfate and Glycacarbamate Compounds
N-Coconut D-Glucocarbamate
0.5-4.0% Foam Stabilizer/Thickener
(§3) Lauryl Sulfate and Glycaurea Compounds
(§4) The above formulations were prepared by admixing the above ingredients in listed order and heating the mixture to about 80° C. with rapid stirring. The mixture was then cooled to about 40° C., placed in a clear jar and stored at room temperature.
For a clear detergent formulation to be successful it must have good shelf life and should not become turbid or produce sedimentation upon standing.

[3] = Viscosity Enhancement/Foam Stabilization (Brookfield Digital Viscometer)
[4] = Critical Micelle Concentration (micelle formation); assay type: physicochemical; settings: 40° C.
Excerpt: The critical micelle concentration (CMC) is defined as the concentration at which a surfactant forms micelles in aqueous solution. […] A necessary and sufficient condition for CMC formation and surface tension reduction is the presence of both hydrophilic and hydrophobic functional groups. The hydrophilic portion provides strong interaction between the surfactant at the interface and with the surrounding water phase. The hydrophobic portion provides spontaneous adsorption of the surfactant at the interface and strong interaction with the adjacent air phase. If any of these functions are not performed, then CMC formation and surface tension reduction will not occur. For significant surface activity, a properly balanced hydrophilic and hydrophobic character is essential.

[5] = Water Solubility and Krafft Point (0.1% solution in water, 40° C.); settings: 40° C.
Excerpt: The temperature at which a surfactant forms micelles instead of precipitates is referred to as the Krafft point (Tk), and at or below this temperature the solubility of a surfactant becomes equal to its CMC (numerical value at which micelles are formed).

[6] = Viscosity Modification of Sodium Lauryl Sulfate prototype detergent compositions; assay type: physicochemical; settings: for Appearance (viscosity) / Viscosity Increase: 15.0% sodium lauryl sulfate; for Viscosity Increase: 22° C.
Method: The prototype detergent compositions are as follows:
as §1, §2
N-Dodecyl D-Glucocarbamate
2.0-7.0% Foam Stabilizer/Thickener
2.0% Viscosity Cobuilder
as §3, §4
It is well known that the viscosity of a liquid composition comprision of anionic surfactant can be modified by the addition of inorganic salts, such as sodium chloride. However, in the absence of an organic modifier, high levels of salt may be necessary to achieve the required viscosity which may lead to problems of storage at cold temperature or even salting our certain ingrediets. In practice, however, the viscosity of a liquid compositionis modified by the simultaneous addition of thickener and small amounts of inorganic salt (viscosity cobuilder). The combined effect is greater than either one alone. The viscosity of the above prototype detergent compositions comprising various amounts of glycacarbamate/urea compound are as follows: […]

[7] = Flow aids: water uptake and appearance of intimate admixtures; assay type: physicochemical; settings: intimate admixtures with ODS, SCMOS, CP-5 or CP-7
Excerpt: It is known in the are that certain ingredients are hygroscopic in nature and liquify after exposure to moisture after a few days. […] Samples were removed periodically, weighed and returned to R. H. chamber. Percent water uptake was based on the amound of builder present. % H2 O Uptake=grams of water absorbed/grams of builder×100 Identical mixtures of ODS, SCMOS, CP-5 or CP-7 and methyl α-D-glucose-6-O-monolaurate (c12 Mgluc), dodecyl β-D-glucopyranoside (C12 Gluc), dodecyl β-D-maltoside (C12 Malt), D-glucose or D-sorbitol were also prepared and are used for comparison. When the comparative sugar surfactant of monosacchardie are used, percent water uptake was based on the amount of saccharide present. % H2 O Uptake=grams of water absorbed/grams of saccharide×100

Surface tension reduction (γ) at 40° C. [1]: Yes
clarity (in words) [2]: clear without sedimentation
Foam Stability ([3]; 4.0% thickener): Yes
viscosity increase from normal viscosity ([3]; 4.0% thickener): 99-104 times
Viscosity (Centipoise) ([3]; 4.0% thickener, 22° C.): 2295 Centipoise
Foam Stability ([3]; 4.0% thickener, listed as N-dodecyl D-glucourea): stabilize foam
CMC at 40° C. (micelle formation) [4]: Yes
CMC at 40° C. (micelle formation) ([4]; listed as M): do not form micelles
H2O Solubility at 40° C. [5]: Yes
Krafft point (Tk) [5]: Below Tk
H2O Solubility at 40° C. ([5]; listed as M): insoluble in water
Appearance (viscosity) ([6]; 2.0% thickener): Slightly Viscous
Viscosity Increase ([6]; 2.0% thickener): Yes
Appearance (viscosity) ([6]; 4.0% thickener): Viscous
Viscosity Increase ([6]; 4.0% thickener): Yes
Appearance (viscosity) ([6]; 7.0% thickener): Very Viscous
Viscosity Increase ([6]; 7.0% thickener): Yes
SMILES: CCCCCCCCCCCCN(C[C@H](O)[C@@H](O)[C@H](O)[C@H](O)CO)C(N)=O [N-Dodecyl D-Glucourea]
Surface tension reduction (γ) at 40° C. ([1]; listed as M): do not significantly reduce the surface tension of water
viscosity enhancement and foam stabilization (comparison in words) ([3]; compared with lauramide DEA, cocoamide MEA, Neodol 91-6 and D-glucose): enhance viscosity and stabilze foam compartively to lauramide diethanolamine (DEA), but better than cocoamide menoethanolamine (MEA), Neodol 91-6 (C9 -C11 alcohol ethoxylate with 6 moles of ethylene oxide) and D-glucose
viscosity increase (in words) ([6]; compared with D-glucose): increases the viscosity of that composition more effectively than D-glucose
handling and flowing characteristics (in words) [7]: improved the handling and flowing characteristics
